# Reference: patent publication US20210402211A1, “LIGHT-HYDROGEN THERAPY INCLUDING LIGHTING MODULE, LIGHTING APPARATUS, AND LIGHTING METHOD FOR PARKINSON'S DISEASE PATIENTS” (priority 2020, published 2021)
# System: PD patients
# Conditions: without light therapy, in a short time
structure (smiles),measurement,value
"[HH] [hydrogen, Molecular hydrogen]",effectiveness of hydrogen therapy alone,not that effective
